These are literature values, as cited in publication PMC9014845 (Clinical cancer research : an official journal of the …, 2019).

Data set [1] deals with patients with FGFR alterations. The following applies: cited from earlier work.
Data set [2] deals with patients with FGFR alterations. The following applies: 23 patients with FGFR alterations; cited from earlier work.

The structures appear in SMILES notation.

Take `CCN1CCN(c2ccc(Nc3cc(N(C)C(=O)Nc4c(Cl)c(OC)cc(OC)c4Cl)ncn3)cc2)CC1` [BGJ398]: in data set [1], the “Overall DCR” value was 37%.

For the molecule `COc1cc(OC)cc(N(CCNC(C)C)c2ccc3ncc(-c4cnn(C)c4)nc3c2)c1` [JNJ-42756493], in data set [2], the “Patients with stable disease for >3 months” value is 8 patients.
